Measured values taken from PubChem BioAssay AID330 (DTP/NCI, 2004).
Where “and” joins values, the source holds several entries; their conditions need not be identical. Equal entries are not always repeated. Inconclusive results and toxic doses are left out. Rule for the calls: active = survival T/C of 150% or more; inactive = T/C below 125% in these data.

Tested on: P388 leukemia ip, CD2F1 mice, survival T/C
Test: NCI In Vivo Anticancer Drug Screen. Data for tumor model P388 Leukemia (intraperitoneal) in CD2F1 (CDF1) mice
Conditions: endpoint: median survival time, higher = longer survival
Method in brief: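 Mice carrying the transplanted tumor received test compound or vehicle. Survival was recorded in each group, and the value is the treated-group measurement divided by that of the vehicle-treated control group.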

[1] = dose: 50.0 mg/kg/injection, schedule: Q01DX009 (ip), vehicle: saline
[2] = dose: 60.0 mg/kg/injection, schedule: Q01DX005 (ip), vehicle: saline with Tween-80
[3] = dose: 120.0 mg/kg/injection, schedule: Q01DX005 (ip), vehicle: saline with Tween-80
[4] = dose: 240.0 mg/kg/injection, schedule: Q01DX005 (ip), vehicle: saline with Tween-80
[5] = dose: 50.0 mg/kg/injection, schedule: Q01DX009 (ip), vehicle: saline with Tween-80
[6] = dose: 100.0 mg/kg/injection, schedule: Q01DX009 (ip), vehicle: saline with Tween-80
[7] = dose: 200.0 mg/kg/injection, schedule: Q01DX009 (ip), vehicle: saline with Tween-80
[8] = dose: 60.0 mg/kg/injection, schedule: Q01DX005 (ip), vehicle: saline
[9] = dose: 120.0 mg/kg/injection, schedule: Q01DX005 (ip), vehicle: saline
[10] = dose: 50.0 mg/kg/injection, schedule: Q01DX009 (ip), vehicle: Klucel (hydroxypropylcellulose) (HPC)
[11] = dose: 100.0 mg/kg/injection, schedule: Q01DX009 (ip), vehicle: Klucel (hydroxypropylcellulose) (HPC)
[12] = dose: 200.0 mg/kg/injection, schedule: Q01DX009 (ip), vehicle: Klucel (hydroxypropylcellulose) (HPC)
[13] = dose: 25.0 mg/kg/injection, schedule: Q01DX009 (ip), vehicle: saline with Tween-80
[14] = dose: 50.0 mg/kg/injection, schedule: Q01DX005 (ip), vehicle: Klucel (hydroxypropylcellulose) (HPC)
[15] = dose: 100.0 mg/kg/injection, schedule: Q01DX005 (ip), vehicle: Klucel (hydroxypropylcellulose) (HPC)
[16] = dose: 200.0 mg/kg/injection, schedule: Q01DX005 (ip), vehicle: Klucel (hydroxypropylcellulose) (HPC)
[17] = dose: 25.0 mg/kg/injection, schedule: Q01DX005 (ip), vehicle: Klucel (hydroxypropylcellulose) (HPC)
[18] = dose: 12.5 mg/kg/injection, schedule: Q01DX009 (ip), vehicle: saline
[19] = dose: 240.0 mg/kg/injection, schedule: Q01DX005 (ip), vehicle: saline

Measured: T/C

ClCC[N+]12CC[N+](CCCl)(CC1)C2 (tested in a mixture with another compound)
active: [1] 159 % of control and 171 % of control | dose: 50.0 mg/kg/injection, schedule: Q01DX009 (ip), vehicle: water 150 % of control | dose: 100.0 mg/kg/injection, schedule: Q01DX005 (ip), vehicle: saline 162 % of control and 168 % of control | dose: 100.0 mg/kg/injection, schedule: Q01DX009 (ip), vehicle: saline 197 % of control and 198 % of control | dose: 100.0 mg/kg/injection, schedule: Q01DX009 (ip), vehicle: water 160 % of control and 196 % of control | dose: 200.0 mg/kg/injection, schedule: Q01DX005 (ip), vehicle: saline 161 % of control and 212 % of control | dose: 200.0 mg/kg/injection, schedule: Q01DX009 (ip), vehicle: saline 240 % of control and 263 % of control | dose: 200.0 mg/kg/injection, schedule: Q01DX009 (ip), vehicle: water 188 % of control | dose: 400.0 mg/kg/injection, schedule: Q01DX009 (ip), vehicle: saline 281 % of control and 296 % of control
inactive: dose: 12.5 mg/kg/injection, schedule: Q01DX009 (ip), vehicle: water 105 % of control and 118 % of control | dose: 25.0 mg/kg/injection, schedule: Q01DX005 (ip), vehicle: saline 116 % of control | dose: 25.0 mg/kg/injection, schedule: Q01DX009 (ip), vehicle: water 119 % of control

CC(C)=NN/C=N/S(C)(=O)=O
inactive: dose: 100.0 mg/kg/injection, schedule: Q04DX002 (ip), vehicle: saline 105 % of control | dose: 200.0 mg/kg/injection, schedule: Q04DX002 (ip), vehicle: saline 104 % of control | dose: 400.0 mg/kg/injection, schedule: Q04DX002 (ip), vehicle: saline 104 % of control

CSC(SC)(SC)c1cc(C)no1
inactive: [2] 111 % of control | [3] 102 % of control | [4] 104 % of control

C=CCC(O)(C(F)(F)F)C(F)(F)F
inactive: [5] 105 % of control | [6] 103 % of control | [7] 115 % of control

CCCCCc1nc(N)nc(-c2nc(N)nc(CCCCC)c2C)c1C
inactive: [8] 96 % of control | [9] 100 % of control

O=C1SC/C(=N\N=c2/scc(-c3ccc(Br)cc3)n2-c2ccccc2)N1Cc1ccccc1
inactive: dose: 100.0 mg/kg/injection, schedule: Q04DX002 (ip), vehicle: Klucel (hydroxypropylcellulose) (HPC) 92 % of control | dose: 200.0 mg/kg/injection, schedule: Q04DX002 (ip), vehicle: Klucel (hydroxypropylcellulose) (HPC) 91 % of control | dose: 400.0 mg/kg/injection, schedule: Q04DX002 (ip), vehicle: Klucel (hydroxypropylcellulose) (HPC) 89 % of control

CCOP(=O)(O)CC(=O)NC(CC(=O)O)C(=O)O (configuration not stated)
inactive: [10] 100 % of control and 111 % of control | [11] 103 % of control and 108 % of control | [12] 106 % of control

CC(C)=CCc1c2c(c(O)c3c(=O)c(-c4ccc(O)c(O)c4)coc13)C=CC(C)(C)O2
inactive: [13] 99 % of control | [5] 105 % of control | [6] 99 % of control | [7] 106 % of control

O=C(N/N=C/c1ccc(O)c(S(=O)(=O)O)c1)C(=O)N/N=C/c1ccc(O)c(S(=O)(=O)O)c1
inactive: [10] 101 % of control | [11] 108 % of control | [12] 108 % of control

CCN(CC)C(=Nc1ccccc1)NC#N
inactive: [14] 110 % of control | [15] 105 % of control | [16] 96 % of control

[I][Pt+2][I].[NH-]C1CCCC1[NH-] (configuration not stated)
active: dose: 100.0 mg/kg/injection, schedule: Q04DX002 (ip), vehicle: saline with Tween-80 166 % of control

CCOC(Cn1cc([N+](=O)[O-])c(=O)[nH]c1=O)OCC
inactive: [17] 90 % of control | [14] 95 % of control

COc1ccc2c(c1OC)C(=O)N1CCc3cc4c(cc3C1C2C(=O)O)OCO4 (configuration not stated)
inactive: dose: 50.0 mg/kg/injection, schedule: Q04DX003 (ip), vehicle: distilled water + Tween-80 100 % of control | dose: 100.0 mg/kg/injection, schedule: Q04DX003 (ip), vehicle: distilled water + Tween-80 109 % of control | dose: 200.0 mg/kg/injection, schedule: Q04DX003 (ip), vehicle: distilled water + Tween-80 100 % of control | dose: 400.0 mg/kg/injection, schedule: Q04DX003 (ip), vehicle: distilled water + Tween-80 104 % of control

CCCCCCCC[N+]1(CC)CCCC1
inactive: dose: 3.12 mg/kg/injection, schedule: Q01DX009 (ip), vehicle: saline 95 % of control | dose: 6.25 mg/kg/injection, schedule: Q01DX009 (ip), vehicle: saline 95 % of control | [18] 96 % of control

Cc1ccc(S(=O)(=O)OCCOc2ccc3ccccc3c2-c2c(OCCOc3ccc4ccccc4c3-c3c(OCCOS(=O)(=O)c4ccc(C)cc4)ccc4ccccc34)ccc3ccccc23)cc1
inactive: dose: 100.0 mg/kg/injection, schedule: Q01DX001 (ip), vehicle: saline with Tween-80 101 % of control | dose: 200.0 mg/kg/injection, schedule: Q01DX001 (ip), vehicle: saline with Tween-80 97 % of control | dose: 400.0 mg/kg/injection, schedule: Q01DX001 (ip), vehicle: saline with Tween-80 97 % of control

CC(C)(C)c1cc(C[N+](C)(C)C)c(O)c(C(C)(C)C)c1
inactive: dose: 12.5 mg/kg/injection, schedule: Q01DX005 (ip), vehicle: distilled water + alcohol 95 % of control | dose: 25.0 mg/kg/injection, schedule: Q01DX005 (ip), vehicle: distilled water + alcohol 96 % of control | dose: 50.0 mg/kg/injection, schedule: Q01DX005 (ip), vehicle: distilled water + alcohol 101 % of control and 104 % of control

N#CCc1noc2ccccc12
inactive: dose: 12.5 mg/kg/injection, schedule: Q01DX009 (ip), vehicle: saline with Tween-80 103 % of control | [13] 109 % of control

CC1CCC(C(C)C)/C(=N/NC(=O)c2cccnc2)C1 (configuration not stated)
inactive: dose: 12.5 mg/kg/injection, schedule: Q01DX005 (ip), vehicle: Klucel (hydroxypropylcellulose) (HPC) 100 % of control | [17] 104 % of control | [14] 100 % of control

O=C1C=CC(=O)N1c1ccc(Cl)cc1Cl
inactive: dose: 3.12 mg/kg/injection, schedule: Q04DX003 (ip), vehicle: saline with Tween-80 105 % of control | dose: 6.25 mg/kg/injection, schedule: Q04DX003 (ip), vehicle: saline with Tween-80 109 % of control | dose: 12.5 mg/kg/injection, schedule: Q04DX003 (ip), vehicle: saline with Tween-80 96 % of control

CCOC(=O)/C(C#N)=C/c1ccc(OC)c(OC)c1
inactive: [14] 99 % of control | [15] 108 % of control | [16] 100 % of control

O=[N+]([O-])c1ccc(-c2c[s+]cs2)cc1
inactive: dose: 6.25 mg/kg/injection, schedule: Q01DX009 (ip), vehicle: distilled water + Tween-80 101 % of control | dose: 12.5 mg/kg/injection, schedule: Q01DX009 (ip), vehicle: distilled water + Tween-80 101 % of control | dose: 25.0 mg/kg/injection, schedule: Q01DX009 (ip), vehicle: distilled water + Tween-80 108 % of control | dose: 50.0 mg/kg/injection, schedule: Q01DX009 (ip), vehicle: distilled water + Tween-80 95 % of control | dose: 100.0 mg/kg/injection, schedule: Q01DX009 (ip), vehicle: distilled water + Tween-80 104 % of control

CCNC(=S)N=Nc1c(O)[nH]c2ccccc12
inactive: [18] 90 % of control | dose: 25.0 mg/kg/injection, schedule: Q01DX009 (ip), vehicle: saline 89 % of control | [1] 88 % of control and 89 % of control

COC1=C(C)C(=O)c2c(c(C=O)c(Cl)n2C)C1=O
inactive: dose: 100.0 mg/kg/injection, schedule: Q01DX001 (ip), vehicle: Klucel (hydroxypropylcellulose) (HPC) 99 % of control | dose: 200.0 mg/kg/injection, schedule: Q01DX001 (ip), vehicle: Klucel (hydroxypropylcellulose) (HPC) 103 % of control

O=C(NNC(=S)NC1OC(CO)C(O)C(O)C1O)c1cccc(C(=O)NNC(=S)NC2OC(CO)C(O)C(O)C2O)n1 (configuration not stated)
inactive: [2] 97 % of control | [8] 106 % of control | [3] 100 % of control | [9] 106 % of control | [4] 96 % of control | [19] 101 % of control

O=C1c2cccc3c2C2(O)c4c1cccc4C(=O)c1cccc(c12)C3=O
inactive: [5] 100 % of control | [6] 90 % of control

COC(=O)c1cn[nH]c1CC(N)=O
inactive: [8] 100 % of control | [9] 103 % of control | [19] 103 % of control
